Source: patent publication US9745339B2 (GRAFFINITY PHARMACEUTICALS GMBH, priority 2012, dated 2017)

Legend:
host cell proteins (HCP) = assay: Microtiter plate chromatography of resins: binding of host cell proteins; design: species or system CHO cell culture; details: fraction of injected undiluted host cell proteins bound
Method: Flowthrough from protein A chromatography (referred to as host cell proteins) was derived from the supernatant of antibody-producing CHO cell culture in serum-free medium. Coomassie brilliant blue dye reagent for Bradford assay was purchased from Thermo Scientific (Bonn/Germany).
(§1) Resins were assessed in packed mode by microtiter plate chromatography. For each column, approximately 30 μl of resin were transferred to a 384-well filter plate and sealed with appropriate top fits. Columns with rProtein A SEPHAROSE 4 FF and MABSORBENT A2P HF were included as controls.
(§2) Either 3.3 cv of whole IgGs dissolved at 0.5 mg ml^−1 in PBS or undiluted host cell proteins (HCP) were injected onto columns.
(§3) Unbound protein was washed from columns with 5 cv of PBS prior to elution with 5 cv of glycine buffer at pH 2.5. […] During injection of samples, speed was reduced to 10 g and centrifugation time increased to 5-10 min. Effluent fractions were collected in 384-well plates and concentrations of protein were analyzed by Bradford assay. Protein masses mi, mft and me (see below) were calculated as the product of fraction volume and measured protein concentration.
(§4) The fraction of bound protein was calculated as the difference between the total mass of protein injected mi and the mass of protein detected in the flowthrough mft, divided by the total mass of protein injected.
(§5) The fraction of bound protein and the yield of protein were calculated for each resin based on data for whole IgG-antibodies. In the case of host cell proteins, only the fraction of bound protein is given. Selectivity of resins was calculated from data for Bevacizumab whole IgG and host cell proteins. Due to limited experimental precision, selectivity was truncated for values beyond 10.

Palivizumab = assay: Microtiter plate chromatography of resins: binding and elution of Palivizumab; details: fraction of injected protein bound; 0.5 mg/ml IgG in PBS pH 7.3
Method: as §1, §2, §3, §4
(§6) The yield of protein was calculated as the mass of protein eluted me, divided by the mass of protein injected mi.
as §5

Tocilizumab = assay: Microtiter plate chromatography of resins: binding and elution of Tocilizumab; details: fraction of injected protein bound; 0.5 mg/ml IgG in PBS pH 7.3
Method: as §1, §2, §3, §4, §6, §5

Bevacizumab [1] = target: T1, Bevacizumab (Homo sapiens, UniProt P01857); assay: Langmuir isotherms by batch adsorption; format: binding; details: for Kd: Bevacizumab 0.05-5 mg/ml in PBS pH 7.3, 25° C., at least 3 h, read-out: kd (dissociation constant, Langmuir isotherm) (converted); for qm (maximum capacity): mg Bevacizumab per ml of resin, Langmuir isotherm
T1 construct: 0.5 mg/ml IgG in PBS pH 7.3; ligand immobilized on SEPHAR; Bevacizumab Yield; other: mass eluted (glycine pH 2.5) / mass injected; kd (dissociation constant, Langmuir isotherm); other: Bevacizumab 0.05-5 mg/ml in PBS pH 7.3, 25° C., at least 3 h; qm (maximum capacity); other: mg Bevacizumab per ml of resin; Langmuir isotherm; t0; fused on or other part: Humanized anti-VEGF-A VH domain joined N-terminally to the IGHG1 constant region (engineered, no UniProt entry)
Method: Experiments were performed with Bevacizumab as antibody. Parameters of Langmuir isotherms for purified antibody were determined by batch adsorption experiments in 96-well microtiter plates. In each well, 10 μl of sorbent slurry (50% v/v) were mixed with 100 μl of protein solution. Initial concentrations varied from 0.05-5 mg/ml in phosphate-buffered saline (0.15 M NaCl, 20 mM phosphate buffer, pH 7.3; PBS). Reactions were agitated vigorously at 25° C. for at least 3 h. Afterwards, antibody concentration in the supernatants were measured by Bradford assay. Data was evaluated by direct fitting of the values with the Langmuir isotherm equation (1).
Parameters of Langmuir isotherms, i.e. dissociation constants Kd and maximum capacities qm, were determined from the measured concentrations in the supernatants. Parameters were estimated by numerical fitting of the model equation derived by Chase (1)

[2] = system: poly-IgG from human serum (h-poly-IgG); assay: Microtiter plate chromatography of resins: binding and elution of human poly-IgG; details: fraction of injected protein bound; 0.5 mg/ml IgG in PBS pH 7.3
Method: as §1, §2, §3, §4, §6, §5

Bevacizumab [3] = target: T1, Bevacizumab; assay: Microtiter plate chromatography of resins: binding and elution of Bevacizumab; details: for Bevacizumab Bound: fraction of injected protein bound, 0.5 mg/ml IgG in PBS pH 7.3, ligand immobilized on SEPHAROSE 4 FF; for Bevacizumab Yield: mass eluted (glycine pH 2.5) / mass injected
Method: as §1, §2, §3, §4, §6
(§7) The selectivity of resins was calculated as the fraction of bound Bevacizumab antibody BAb, divided by the fraction of bound host cell proteins BHCP.
as §5

Cetuximab = assay: Microtiter plate chromatography of resins: binding and elution of Cetuximab; details: fraction of injected protein bound; 0.5 mg/ml IgG in PBS pH 7.3
Method: as §1, §2, §3, §4, §6, §5

Bevacizumab [4] = target: T1, Bevacizumab; assay: Uptake kinetics by batch adsorption (time-scale of binding); details: time after which 80% of equilibrium saturation occurred; 0.75 mg/ml Bevacizumab in PBS, 25° C.
Method: Uptake kinetics was investigated similarly by batch adsorption in 96-well filter plates. Again, 10 μl of sorbent slurry (50% v/v) were mixed with 100 μl of protein solution. […] Reactions were agitated vigorously at 25° C. for up to 80 min. Supernatants were separated rapidly by spinning through filters after 2.5, 5, 10, 20, 40 and 80 minutes and sampled for analysis. Concentrations of the antibody were analyzed by Bradford assay.
For determination of t0.8, measured concentrations in the supernatant were interpolated by fitting of double-exponentials and values of t0.8 were read out from graphs (2).

Bevacizumab [5] = assay: Microtiter plate chromatography of resins: binding and elution of Bevacizumab; details: fraction of bound Bevacizumab divided by fraction of bound HCP; truncated for values beyond 10
Method: as §1, §2, §3, §4, §6, §7, §5

Palivizumab Bound (Palivizumab) [%]	Tocilizumab Bound (Tocilizumab) [%]	Kd (Bevacizumab [1]) [µM]	qm (maximum capacity) (Bevacizumab [1]) [mg/mL]	h-poly-IgG Bound [2] [%]	Bevacizumab Bound (Bevacizumab [3]) [%]	Bevacizumab Yield (Bevacizumab [3]) [%]	Cetuximab Bound (Cetuximab) [%]	t0.8 (time-scale of binding) (Bevacizumab [4]) [min]	Selectivity (Bevacizumab [5])	Structure (SMILES)	HCP Bound (host cell proteins (HCP)) [%]
58	98			63	100	95	89		8.3	NCCCn1c(=O)c(=O)[nH]c2cc(C(=O)Nc3nnc(-c4ccco4)s3)ccc21 [Ligand L28, 1-(3-Amino-1-propyl)-2,3-dioxo-1,2,3,4-tetrahydroquinoxaline-6-carboxylic acid N-[5-(2-furyl)-1,3,4-thiadiazol-2-yl]amide]	12
100	100	117	45	100	100	95	100	5.3		Cn1c(CCCCCN)nc2cc(C(=O)Nc3nnc(-c4ccco4)s3)ccc21 [Ligand L31, 2-(5-Amino-1-pentyl)-1-methylbenzimidazole-5-carboxylic acid N-[5-(2-furyl)-1,3,4-thiadiazol-2-yl]amide]	20
91	100			91	100	103	100		2.3	NCCCn1cnc2cc(C(=O)Nc3nc4c(s3)CCC4)ccc21 [Ligand L32, 1-(3-Amino-1-propyl)benzimidazole-5-carboxylic acid N-(5,6-dihydro-(4H)-cyclopentathiazol-2-yl) amide]	44
100	100			100	100	105	100		2.9	NCCCn1cnc2cc(C(=O)Nc3nnc(-c4ccccc4)s3)ccc21 [Ligand L33, 1-(3-Amino-1-propyl)benzimidazole-5-carboxylic acid N-(2-phenyl-1,3,4-thiadiazol-5-yl) amide]	34
78	85			78	100	104	100		10.0	Cc1ccc(NC(=O)c2ccc3c(c2)ncn3CCCN)nn1 [Ligand L34, 1-(3-Amino-1-propyl)benzimidazole-5-carboxylic acid N-(6-methylpyridazin-3-yl) amide]	10
100	100			100	100	104	100		3.4	NCCCn1cnc2cc(C(=O)Nc3nnc(C4CC4)s3)ccc21 [Ligand L35, 1-(3-Amino-1-propyl)benzimidazole-5-carboxylic acid N-(2-cyclopropyl-1,3,4-thiadiazol-5-yl) amide]	29
100	100			100	100	87	100		4.0	NCCOCCOc1ccc(C(=O)Nc2nnc(-c3ccco3)s2)cc1 [Ligand L37, 4-(5-Amino-3-oxa-1-pentyloxy)benzoic acid N-[5-(2-furyl)-1,3,4-thiadiazol-2-yl] amide]	25
95	99			99	100	106	100		2.9	NCCCOc1ccc(C(=O)Nc2nc(-c3ccccn3)cs2)cc1 [Ligand L38, 4-[(1-Amino-3-propyl)oxy]benzoic acid N-[4-(2-pyridyl)thiazol-2-yl] amide]	35
94	98		34	97	100	95	100	8.8		Cc1nc2cc(C(=O)Nc3nc(-c4ccncc4)cs3)ccc2n1CCCN [Ligand L51, 1-(3-Amino-1-propyl)-2-methylbenzimidazole-5-carboxylic acid N-[4-(4-pyridyl)thiazol-2-yl] amide]	15
100	100	131	34	100	100	96	100	11.8		N[C@@H](CCC(=O)NCCOCCOCCn1cnc2cc(C(=O)Nc3nnc(-c4ccco4)s3)ccc21)C(=O)NCCOCCOCCn1cnc2cc(C(=O)Nc3nnc(-c4ccco4)s3)ccc21 [Ligand L53]	11
100	100	46.9	35	100	100	95	100	8.4		Cc1nc2cc(C(=O)Nc3nnc(-c4ccco4)s3)ccc2n1CCOCCOCCNC(=O)CC[C@H](N)C(=O)NCCOCCOCCn1c(C)nc2cc(C(=O)Nc3nnc(-c4ccco4)s3)ccc21 [Ligand L54]	4

Structure (SMILES)	Palivizumab Bound (Palivizumab) [%]	Tocilizumab Bound (Tocilizumab) [%]	Kd (Bevacizumab [1]) [µM]	qm (maximum capacity) (Bevacizumab [1]) [mg/mL]	h-poly-IgG Bound [2] [%]	Bevacizumab Bound (Bevacizumab [3]) [%]	Bevacizumab Yield (Bevacizumab [3]) [%]	Cetuximab Bound (Cetuximab) [%]	t0.8 (time-scale of binding) (Bevacizumab [4]) [min]	Selectivity (Bevacizumab [5])	HCP Bound (host cell proteins (HCP)) [%]
NCCOCCOCCn1cnc2cc(C(=O)Nc3nnc(-c4ccco4)s3)ccc21	100	100	85.9	37	100	100	99	99	6.6		4
NCCOCCOCCn1cnc2cc(C(=O)Nc3nc(-c4ccccn4)cs3)ccc21	98	100		41	100	100	103	100	9.0		13
Cc1nc2cc(C(=O)Nc3nnc(-c4ccco4)s3)ccc2n1CCOCCOCCN	100	100	333	45	100	100	97	100	8.9		0
